Experimental data from article PMC7866087, “Evaluation of Computationally Designed Peptides against TWEAK, a Cytokine of the Tumour Necrosis Factor Ligand Family” (International Journal of Molecular Sciences, 2021).
“And” between values parts separate entries of the source, which are not always exact repeats. Identical values can stand only once.

System: TWEAK-Fn14 signalling pathway, BRV5 cells
Assay: Cell-based screening of individual peptides, gene expression microarray in TWEAK-stimulated BRV5 cells
Set-up: species or system human
Conditions: 6 h; for regulation of probe genes by individual peptides: BRV5 + TWEAK 25 ng/mL, peptides 450 µM; for BIRC2 mRNA expression (normalized to NARS2) / HSP90B1 mRNA expression (normalized to NARS2) / IL6 mRNA expression (normalized to NARS2) / JUN mRNA expression (normalized to NARS2) / MAP4K4 mRNA expression (normalized to NARS2) / MAPK14 mRNA expression (normalized to NARS2) / NFKB2 mRNA expression (normalized to NARS2) / TNFRSF12A mRNA expression (normalized to NARS2) / TRAF2 mRNA expression (normalized to NARS2) / BIRC2 expression Z-Score / HSP90B1 expression Z-Score / IL6 expression Z-Score / JUN expression Z-Score / MAP4K4 expression Z-Score / MAPK14 expression Z-Score / NFKB2 expression Z-Score / TNFRSF12A expression Z-Score / TRAF2 expression Z-Score: individual peptides, BRV5 + TWEAK; for BIRC2 mRNA expression (normalized to NARS2) / HSP90B1 mRNA expression (normalized to NARS2) / IL6 mRNA expression (normalized to NARS2) / JUN mRNA expression (normalized to NARS2) / MAP4K4 mRNA expression (normalized to NARS2) / MAPK14 mRNA expression (normalized to NARS2) / NFKB2 mRNA expression (normalized to NARS2) / TNFRSF12A mRNA expression (normalized to NARS2) / TRAF2 mRNA expression (normalized to NARS2): 450 µM; for BIRC2 expression Z-Score / HSP90B1 expression Z-Score / IL6 expression Z-Score / JUN expression Z-Score / MAP4K4 expression Z-Score / MAPK14 expression Z-Score / NFKB2 expression Z-Score / TNFRSF12A expression Z-Score / TRAF2 expression Z-Score: normalized to NARS2
From the text: Pool 1 and 5 were therefore deconstructed to assess the effect of individual peptides and their activity on same cell-based screening. Pools 1 and 5 were composed of peptides 45, 46, 42, 3, 49, 11, and 13; and of peptides 1, 9, 30, 35, 41, 43, 7, and 14, respectively. As before, and shown in Figure 4B, the level of expression of probe genes on TWEAK-stimulated (T) BRV5 cells is overall higher than on non-stimulated (NT) one. […] The structural model of peptides 43, 30, 35 and 49 bound to TWEAK can be seen in Figure 5 and Supplementary Materials Figures S4–S6, respectively.
Three different cell lines were used in this study: BRV5, MDA-MB 435 (435-P), and HT29. The BRV5 is a highly metastatic brain cell line, obtained in one of our laboratories by primary culture from a brain of a nude mouse inoculated with human 435-Br1 brain metastatic cells, as previously described and used as a model to test the peptides in cell cultures. […] The triple negative 435-P cell line is a useful human breast cancer model that expresses both epithelial and melanocytic markers, and was included as the parental cell from which 435-Br1 metastatic variant was initially originated (both cell lines kindly provided by Dr Fabra at IDIBELL Institute, Hospitalet de Llobregat, Spain). Finally, HT29 human colon carcinoma cells obtained from the European Type Culture Collection (ECACC 91072201) were used as a positive control of TWEAK dependent Fn14 over-expressing cells to evaluate TWEAK-Fn14 axis of brain metastatic variants.
Appropriate cell culture conditions were established as the controls needed in the expression of genes with and without peptides and with and without TWEAK activation, both as pools and individually (see Supplementary Materials Figure S2). The protocol started with the seeding of 125,000 cells/well in 500 µL of culture media supplemented with 10% fetal bovine serum (CM+FBS10%) in 24-well dishes for 24 h before removing FBS (CM-FBS). After overnight starvation in CM-FBS culture, different peptide treatment conditions (at final concentration of 450 µM) were established in the presence or absence of TWEAK (25 ng/mL final concentration) (Peprotech EC, Ltd., London, UK). Some cells were treated with peptides at a single, unique, initial dose (time 0) while other were treated with repeated doses to account for the effect cell-culture degradation. These include a repeated treatment every hour (i.e., […]), every two hours (time 0, 2, and 4) and every three hours (time 0 and 3)—see Supplementary Materials Figure S2 for diagrammatic depiction. At time 6 (after six hours) cells were lysed and RNA extracted for transcriptomic analyses (see next). Cell were culture for six hours as this was the time needed to achieve the highest upregulation of the TWEAK-Fn14 axis upon TWEAK treatment as shown in previous time-course RT-PCR experiments (see Figure 2).
RNA from cells was extracted 6 h after treatments by direct lysis on the well. The RNeasy Micro kit (Qiagen, Hilden, Germany) was used to isolate total RNA from cell lysate following manufacturer’s protocols including an additional step of digestion with DNase I (Qiagen, Hilden, Germany). Total RNA concentration was measured in a NanoDrop 1000 spectrophotometer (Thermo Scientific, Waltham, MA, USA). The RNA extracted from treated and untreated cells (see above) was used as a proxy for gene expression.
The quantitative RT-PCR was performed using Fluidigm Dynamic Array FlexSix array with the specific primers for gene expression (Delta Genes Assays, Wet lab tested on Dynamic Array IFC) designed to RefSeq for detection by pPCR EvaGreen assay (Dynamic Array FlexSix, Fluidigm Corporation). Each Flex Six IFC has a total of six independent partitions. Each partition has a 12 × 12 format (12 assay inlets and 12 sample inlets) and will be run independently as a separate experimental run. […]

## SGVSTAQLD [Peptide 4]
  regulation of probe genes by individual peptides: induced a higher level of expression of the gene
Mean of replicate columns
  BIRC2 mRNA expression (normalized to NARS2): 0.6267
  HSP90B1 mRNA expression (normalized to NARS2): 2.423
  IL6 mRNA expression (normalized to NARS2): 0.001966
  JUN mRNA expression (normalized to NARS2): 0.1025
  MAP4K4 mRNA expression (normalized to NARS2): 0.2128
  MAPK14 mRNA expression (normalized to NARS2): 0.1993
  NFKB2 mRNA expression (normalized to NARS2): 0.04458
  TNFRSF12A mRNA expression (normalized to NARS2): 0.01499
  TRAF2 mRNA expression (normalized to NARS2): 0.01397
Replicate column 1
  BIRC2 mRNA expression (normalized to NARS2): 0.6069
  HSP90B1 mRNA expression (normalized to NARS2): 2.308
  IL6 mRNA expression (normalized to NARS2): 0.001514
  JUN mRNA expression (normalized to NARS2): 0.09341
  MAP4K4 mRNA expression (normalized to NARS2): 0.1972
  MAPK14 mRNA expression (normalized to NARS2): 0.1927
  NFKB2 mRNA expression (normalized to NARS2): 0.04237
  TNFRSF12A mRNA expression (normalized to NARS2): 0.01676
  TRAF2 mRNA expression (normalized to NARS2): 0.01481
Replicate column 2
  BIRC2 mRNA expression (normalized to NARS2): 0.6465
  HSP90B1 mRNA expression (normalized to NARS2): 2.538
  IL6 mRNA expression (normalized to NARS2): 0.002418
  JUN mRNA expression (normalized to NARS2): 0.1116
  MAP4K4 mRNA expression (normalized to NARS2): 0.2284
  MAPK14 mRNA expression (normalized to NARS2): 0.2059
  NFKB2 mRNA expression (normalized to NARS2): 0.04678
  TNFRSF12A mRNA expression (normalized to NARS2): 0.01322
  TRAF2 mRNA expression (normalized to NARS2): 0.01313
Listed as P4
  BIRC2 expression Z-Score: 0.4721
  HSP90B1 expression Z-Score: 0.3256
  IL6 expression Z-Score: 0.0669 and 0.06688
  JUN expression Z-Score: 0.0589 and 0.05892
  MAP4K4 expression Z-Score: 0.6937
  MAPK14 expression Z-Score: -0.0192 and -0.01918
  NFKB2 expression Z-Score: 0.3908
  TNFRSF12A expression Z-Score: -0.6289
  TRAF2 expression Z-Score: -0.2666

## TKGGGTADA [Peptide 3]
  regulation of probe genes by individual peptides: induced a higher level of expression of the gene
Mean of replicate columns
  BIRC2 mRNA expression (normalized to NARS2): 0.7197
  HSP90B1 mRNA expression (normalized to NARS2): 3.909
  IL6 mRNA expression (normalized to NARS2): 0.003239
  JUN mRNA expression (normalized to NARS2): 0.1441
  MAP4K4 mRNA expression (normalized to NARS2): 0.2389
  MAPK14 mRNA expression (normalized to NARS2): 0.2205
  NFKB2 mRNA expression (normalized to NARS2): 0.05335
  TNFRSF12A mRNA expression (normalized to NARS2): 0.03024
  TRAF2 mRNA expression (normalized to NARS2): 0.009427
Replicate column 1
  BIRC2 mRNA expression (normalized to NARS2): 0.6856
  HSP90B1 mRNA expression (normalized to NARS2): 3.773
  IL6 mRNA expression (normalized to NARS2): 0.004016
  JUN mRNA expression (normalized to NARS2): 0.1498
  MAP4K4 mRNA expression (normalized to NARS2): 0.2356
  MAPK14 mRNA expression (normalized to NARS2): 0.2165
  NFKB2 mRNA expression (normalized to NARS2): 0.05516
  TNFRSF12A mRNA expression (normalized to NARS2): 0.03211
  TRAF2 mRNA expression (normalized to NARS2): 0.009734
Replicate column 2
  BIRC2 mRNA expression (normalized to NARS2): 0.7537
  HSP90B1 mRNA expression (normalized to NARS2): 4.045
  IL6 mRNA expression (normalized to NARS2): 0.002462
  JUN mRNA expression (normalized to NARS2): 0.1383
  MAP4K4 mRNA expression (normalized to NARS2): 0.2421
  MAPK14 mRNA expression (normalized to NARS2): 0.2245
  NFKB2 mRNA expression (normalized to NARS2): 0.05153
  TNFRSF12A mRNA expression (normalized to NARS2): 0.02838
  TRAF2 mRNA expression (normalized to NARS2): 0.00912
Listed as P3
  BIRC2 expression Z-Score: 1.1157 and 1.116
  HSP90B1 expression Z-Score: 2.9702 and 2.97
  IL6 expression Z-Score: 1.1687 and 1.169
  JUN expression Z-Score: 0.5369
  MAP4K4 expression Z-Score: 1.3444 and 1.344
  MAPK14 expression Z-Score: 0.3511
  NFKB2 expression Z-Score: 1.2258 and 1.226
  TNFRSF12A expression Z-Score: 1.1044 and 1.104
  TRAF2 expression Z-Score: -0.4866

## 46: TGYAENV [Peptide 46]
Mean of replicate columns
  BIRC2 mRNA expression (normalized to NARS2): 0.5415
  HSP90B1 mRNA expression (normalized to NARS2): 2.314
  IL6 mRNA expression (normalized to NARS2): 0.00187
  JUN mRNA expression (normalized to NARS2): 0.08801
  MAP4K4 mRNA expression (normalized to NARS2): 0.2105
  MAPK14 mRNA expression (normalized to NARS2): 0.2302
  NFKB2 mRNA expression (normalized to NARS2): 0.05417
  TNFRSF12A mRNA expression (normalized to NARS2): 0.01829
  TRAF2 mRNA expression (normalized to NARS2): 0.01616
Replicate column 1
  BIRC2 mRNA expression (normalized to NARS2): 0.5372
  HSP90B1 mRNA expression (normalized to NARS2): 2.32
  IL6 mRNA expression (normalized to NARS2): 0.00168
  JUN mRNA expression (normalized to NARS2): 0.08305
  MAP4K4 mRNA expression (normalized to NARS2): 0.1965
  MAPK14 mRNA expression (normalized to NARS2): 0.2456
  NFKB2 mRNA expression (normalized to NARS2): 0.05593
  TNFRSF12A mRNA expression (normalized to NARS2): 0.0189
  TRAF2 mRNA expression (normalized to NARS2): 0.01641
Replicate column 2
  BIRC2 mRNA expression (normalized to NARS2): 0.5458
  HSP90B1 mRNA expression (normalized to NARS2): 2.3087
  IL6 mRNA expression (normalized to NARS2): 0.002059
  JUN mRNA expression (normalized to NARS2): 0.09296
  MAP4K4 mRNA expression (normalized to NARS2): 0.2245
  MAPK14 mRNA expression (normalized to NARS2): 0.2147
  NFKB2 mRNA expression (normalized to NARS2): 0.05241
  TNFRSF12A mRNA expression (normalized to NARS2): 0.01767
  TRAF2 mRNA expression (normalized to NARS2): 0.01592
Listed as P46
  BIRC2 expression Z-Score: -0.118
  HSP90B1 expression Z-Score: 0.1322
  IL6 expression Z-Score: -0.0166 and -0.01658
  JUN expression Z-Score: -0.1078
  MAP4K4 expression Z-Score: 0.6365
  MAPK14 expression Z-Score: 0.5199
  NFKB2 expression Z-Score: 1.3042 and 1.304
  TNFRSF12A expression Z-Score: -0.2543
  TRAF2 expression Z-Score: -0.1604
